# Assay results: US7767789B2, “Truncated proteins as cancer markers” (University Hopitals of Cleveland, priority 2005, dated 2010)
# What was measured:
# [1] = target: T1, P2X7-mediated pore (MDCK cells expressing P2X7 or P2X7-j) (Homo sapiens, UniProt Q99572, Y155H); test: BzATP-stimulated pore activation (ethidium bromide entry), MDCK cells; assay type: cell-based; details: doxycycline-treated MDCK-P2X7-j cells compared to MDCK-P2X7 cells
# T1 construct: expressed in transfected cells; host or cells: MDCK (canine kidney), doxycycline-inducible promoter
# T1 sequence (Q99572 1-258 isoform Q99572-9 Y155H): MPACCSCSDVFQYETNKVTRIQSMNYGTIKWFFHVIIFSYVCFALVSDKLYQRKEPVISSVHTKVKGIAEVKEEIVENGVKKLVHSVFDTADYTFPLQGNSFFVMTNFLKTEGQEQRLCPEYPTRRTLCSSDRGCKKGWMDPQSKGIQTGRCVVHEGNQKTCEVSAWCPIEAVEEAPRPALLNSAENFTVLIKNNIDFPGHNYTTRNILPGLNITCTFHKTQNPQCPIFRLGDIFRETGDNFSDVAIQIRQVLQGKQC
# Procedure: (§1) BzATP-stimulated pore activation of P2X7 and P2X7-j receptor proteins was also determined. FIG. 13. MDCK cells or HEK-293 cells expressing either P2X7 or P2X7-j were treated with BzATP in the presence of ethidium bromide. Fluorescence of ethidium bromide was measured after BzATP activation (100 micromolar) as a measure of ethidium bromide entry into the cells via the P2X7-mediated pore. Results in seven Panels (A-G) each composed of 30 exposures of cells placed on a glass slide. The direction of the pictures in each Panel is left to right, and then up-down. […] FIG. 13, Panel B and Panel F, respectively.
# (§2) A quantification of the changes in ethidium bromide signaling from experiments similar to those in FIG. 13 was then calculated. FIG. 14.
# [2] = target: T2, P2X7-mediated pore (MDCK cells expressing P2X7 or P2X7-j) (Homo sapiens, UniProt Q99572, R270H/Y155H); test: as above; assay type: cell-based; details: doxycycline-treated MDCK-P2X7 cells; BzATP 100 micromolar
# T2 construct: expressed in transfected cells; host or cells: MDCK (canine kidney), doxycycline-inducible promoter
# T2 sequence (Q99572 whole entry Y155H/R270H): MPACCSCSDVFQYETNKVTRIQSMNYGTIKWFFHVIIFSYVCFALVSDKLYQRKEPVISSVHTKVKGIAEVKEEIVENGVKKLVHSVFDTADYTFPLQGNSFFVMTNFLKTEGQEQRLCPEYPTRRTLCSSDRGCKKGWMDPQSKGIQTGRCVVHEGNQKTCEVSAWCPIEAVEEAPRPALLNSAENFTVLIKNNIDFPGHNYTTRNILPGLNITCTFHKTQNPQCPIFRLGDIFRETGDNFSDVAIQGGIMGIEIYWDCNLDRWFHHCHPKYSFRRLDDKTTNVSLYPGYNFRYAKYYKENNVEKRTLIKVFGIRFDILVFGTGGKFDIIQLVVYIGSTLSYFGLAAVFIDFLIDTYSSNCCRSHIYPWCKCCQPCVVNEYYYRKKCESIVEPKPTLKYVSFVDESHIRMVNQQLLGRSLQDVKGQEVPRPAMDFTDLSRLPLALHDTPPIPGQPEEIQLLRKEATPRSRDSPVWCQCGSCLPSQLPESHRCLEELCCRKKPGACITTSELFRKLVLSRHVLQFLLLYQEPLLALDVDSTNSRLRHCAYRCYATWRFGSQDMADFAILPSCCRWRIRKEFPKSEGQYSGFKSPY
# Procedure: as §1, §2
# [3] = target: T3, P2X7 channel (HEK-293 cells expressing P2X7 or P2X7-j) (Homo sapiens, UniProt Q99572, R270H/Y155H); assay type: cell-based; details: HEK-293-P2X7 cells; 100 micromolar BzATP
# T3 construct: expressed in transfected cells; host or cells: HEK-293
# T3 sequence (Q99572 whole entry Y155H/R270H): as above
# [4] = system: P2X7 channel (HEK-293 cells expressing P2X7 or P2X7-j); assay type: cell-based, human; details: P2X7 plus P2X7-j HEK-293 cells compared to P2X7 HEK-293 cells
# [5] = target: T4, P2X7 channel (HEK-293 cells expressing P2X7 or P2X7-j) (Homo sapiens, UniProt Q99572, Y155H); assay type: cell-based; details: HEK-293-P2X7-j cells compared to HEK-293-P2X7 cells
# T4 construct: expressed in transfected cells; host or cells: HEK-293
# T4 sequence (Q99572 1-258 isoform Q99572-9 Y155H): as the sequence (Q99572 1-258 isoform Q99572-9 Y155H) above
# MDCK-P2X7 cells = test: Apoptosis, Cell Death Detection ELISA-PLUS, MDCK cells; assay type: cell-based, canine; details: doxycycline treated MDCK-P2X7 cells; BzATP 50 micromolar
# Procedure: Baseline and BzATP-induced apoptosis in MDCK cells and in HEK-293 cells expressing P2X7 and P2X7-j proteins were studied. FIG. 17. […] Cells were treated with BzATP (50 micromolar) to activate the P2X7 receptors. Apoptosis was quantified using Cell Death Detection ELISA-PLUS photometric enzyme-immunoassay that determines cytoplasmic histone-associated-DNA-fragments (mono and oligonucleosomes) after spontaneous or induced cell death (Roche, Cat. No. 1774425, 96 tests). […] Expression of the P2X7-j proteins either had no effect (HEK-293 cells) or may have decreased apoptosis (MDCK cells).
# [6] = target: T5, full-length human P2X7 receptor (HEK-293-hP2X7-R cells) (Homo sapiens, UniProt Q99572); test: Ethidium bromide influx in HEK-293-hP2X7-R and wild-type HEK293 cells on filters; assay type: cell-based
# T5 construct: For transfections, the full length human P2X7 receptor; expressed in transfected cells; host or cells: HEK-293, pcDNA-6 vector
# T5 sequence (Q99572 1-595): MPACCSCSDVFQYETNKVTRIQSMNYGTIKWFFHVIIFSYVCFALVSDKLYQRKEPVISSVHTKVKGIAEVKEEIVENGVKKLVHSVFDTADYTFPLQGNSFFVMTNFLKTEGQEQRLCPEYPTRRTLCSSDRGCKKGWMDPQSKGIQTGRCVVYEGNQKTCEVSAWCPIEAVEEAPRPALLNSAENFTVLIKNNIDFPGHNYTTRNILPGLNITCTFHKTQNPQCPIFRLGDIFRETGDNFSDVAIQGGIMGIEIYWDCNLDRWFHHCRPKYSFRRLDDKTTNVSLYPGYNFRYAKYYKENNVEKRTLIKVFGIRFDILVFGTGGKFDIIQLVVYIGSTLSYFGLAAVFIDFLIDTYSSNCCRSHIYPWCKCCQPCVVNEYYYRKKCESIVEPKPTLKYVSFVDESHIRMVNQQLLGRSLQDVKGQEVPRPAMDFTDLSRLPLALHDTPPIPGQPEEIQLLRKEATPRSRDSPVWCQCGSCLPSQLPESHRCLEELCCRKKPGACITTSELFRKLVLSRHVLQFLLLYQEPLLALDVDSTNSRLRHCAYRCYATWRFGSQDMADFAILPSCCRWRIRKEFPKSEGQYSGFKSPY
# [7] = target: T5, full-length human P2X7 receptor (HEK-293-hP2X7-R cells); test: Cytosolic calcium in HEK-293-hP2X7-R and wild-type HEK293 cells on filters; assay type: cell-based
# [8] = system: β-arrestin-2-GFP in CaSki cells; test: Real-time confocal microscopy of β-arrestin-2-GFP, CaSki cells; assay type: cell-based, human; details: CaSki transfected with β-arrestin-2-GFP; not shown
# Procedure: CaSki cells transfected with the β-arrestin-2-GFP, or HEK-293 cells co-transfected with the full-length human P2X7-receptor and the β-arrestin-2-GFP were plated on 35-mm glass-bottom culture dishes (MatTek Corporation, Ashland, MA). Dishes contained a centered, 1 cm well formed from a glass coverslip sealed hole in the plastic. Two hours before experiments the medium was replaced with serum-free medium supplemented with 10 mM HEPES. The distribution of the β-arrestin-2-GFP was visualized before and after treatment with the agonist by real-time confocal microscopy. Imaging of the β-arrestin-2-GFP fluorescence in the same cells was performed on a Zeiss laser-scanning confocal microscope (LSM-510) using a heated (37° C.) microscope stage. Barak et al., “A beta-arrestin/green fluorescent protein biosensor for detecting G protein-coupled receptor activation” J Biol Chem 272:27497-27500 (1997).
# Images were collected sequentially before and after treatment with agonist for 0-30 min at 37° C. using single line excitation (488 nm).
substance,measurement,setting,value
2′-3′-O-(4-benzoylbenzoyl)adenosine 5′-triphosphate [BzATP],ethidium bromide signaling response to BzATP,[1],significantly smaller
same,ethidium bromide signaling (pore),[2],increased ethidium bromide signaling
same,Fluo-4 signal (cytosolic calcium),[3],increased acutely the Fluo-4 signal
same,calcium response to BzATP,[4],significantly smaller
same,calcium response to BzATP,[5],significantly smaller
same,apoptosis,MDCK-P2X7 cells,increased apoptosis
same,influx of ethidium bromide,[6],influx of ethidium bromide
same,sustained cytosolic calcium increase,[7],induced sustained Ci increase
same,re-distribution of GFP fluorescence towards cell periphery,[8],A similar effect was observed
